Measured values reported in ChEMBL document CHEMBL5649169 (ChemMedChem, 2018).

How the values were obtained:
[1] = biological target: Dual specificity mitogen-activated protein kinase kinase 3 (Homo sapiens) (UniProt P46734)
[2] = biological target: Ephrin type-B receptor 6 (Homo sapiens) (UniProt O15197)
[3] = biological target: Peptidyl-prolyl cis-trans isomerase H (Homo sapiens) (UniProt O43447)
[4] = biological target: Thioredoxin (Homo sapiens) (UniProt P10599)
[5] = biological target: Heterogeneous nuclear ribonucleoprotein D0 (Homo sapiens) (UniProt Q14103)
Heterogeneous nuclear ribonucleoprotein D0 (Homo sapiens), sequence (Q14103 whole entry): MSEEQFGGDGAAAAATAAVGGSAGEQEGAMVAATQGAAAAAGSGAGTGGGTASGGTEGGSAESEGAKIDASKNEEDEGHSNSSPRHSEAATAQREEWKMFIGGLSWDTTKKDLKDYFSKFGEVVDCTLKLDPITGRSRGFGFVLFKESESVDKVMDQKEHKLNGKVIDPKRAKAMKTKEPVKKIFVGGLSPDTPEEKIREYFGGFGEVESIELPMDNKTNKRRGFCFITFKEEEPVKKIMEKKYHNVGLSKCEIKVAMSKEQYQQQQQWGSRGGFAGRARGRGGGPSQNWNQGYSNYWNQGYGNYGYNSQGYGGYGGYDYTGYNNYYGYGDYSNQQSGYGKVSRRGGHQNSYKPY

[6] = biological target: 3-beta-hydroxysteroid-Delta(8),Delta(7)-isomerase (Homo sapiens) (UniProt Q15125)
[7] = biological target: Host cell factor 1 (Homo sapiens) (UniProt P51610)
[8] = biological target: U2 snRNP-associated SURP motif-containing protein (Homo sapiens) (UniProt O15042)
[9] = biological target: TBC1 domain family member 5 (Homo sapiens) (UniProt Q92609)
[10] = biological target: Tubulin alpha-1B chain (Homo sapiens) (UniProt P68363)
[11] = biological target: Sorting and assembly machinery component 50 homolog (Homo sapiens) (UniProt Q9Y512)
Sorting and assembly machinery component 50 homolog (Homo sapiens), sequence (Q9Y512 whole entry): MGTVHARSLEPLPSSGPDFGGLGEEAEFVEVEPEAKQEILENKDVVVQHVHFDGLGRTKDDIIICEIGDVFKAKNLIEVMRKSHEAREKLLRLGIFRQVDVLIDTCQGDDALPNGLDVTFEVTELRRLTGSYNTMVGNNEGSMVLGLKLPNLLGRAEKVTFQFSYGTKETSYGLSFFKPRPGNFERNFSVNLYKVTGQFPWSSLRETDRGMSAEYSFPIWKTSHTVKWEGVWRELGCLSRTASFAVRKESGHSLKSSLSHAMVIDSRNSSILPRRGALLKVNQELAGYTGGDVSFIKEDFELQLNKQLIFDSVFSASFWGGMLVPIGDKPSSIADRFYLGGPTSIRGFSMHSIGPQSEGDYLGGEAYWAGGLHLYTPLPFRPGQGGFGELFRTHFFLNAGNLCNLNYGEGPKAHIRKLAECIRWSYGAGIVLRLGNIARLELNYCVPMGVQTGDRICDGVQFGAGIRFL

[12] = biological target: Leucine-rich repeat-containing protein 47 (Homo sapiens) (UniProt Q8N1G4)
Leucine-rich repeat-containing protein 47 (Homo sapiens), sequence (Q8N1G4 whole entry): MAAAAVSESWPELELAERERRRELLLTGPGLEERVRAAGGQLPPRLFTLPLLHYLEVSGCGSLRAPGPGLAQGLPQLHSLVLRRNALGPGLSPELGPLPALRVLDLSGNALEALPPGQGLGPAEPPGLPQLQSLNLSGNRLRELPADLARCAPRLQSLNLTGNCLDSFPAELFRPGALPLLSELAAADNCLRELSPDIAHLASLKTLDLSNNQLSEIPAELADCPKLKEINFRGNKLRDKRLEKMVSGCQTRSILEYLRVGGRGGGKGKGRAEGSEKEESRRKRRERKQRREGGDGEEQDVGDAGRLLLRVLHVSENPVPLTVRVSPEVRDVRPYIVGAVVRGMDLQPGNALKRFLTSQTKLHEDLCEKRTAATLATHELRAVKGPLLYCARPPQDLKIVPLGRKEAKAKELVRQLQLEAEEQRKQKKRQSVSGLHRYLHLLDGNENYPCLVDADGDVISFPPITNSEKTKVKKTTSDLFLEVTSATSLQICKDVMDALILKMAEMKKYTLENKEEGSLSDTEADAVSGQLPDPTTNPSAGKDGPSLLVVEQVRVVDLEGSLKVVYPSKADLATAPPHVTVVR

[13] = biological target: Glycogen phosphorylase, brain form (Homo sapiens) (UniProt P11216)
[14] = biological target: Dual specificity testis-specific protein kinase 2 (Homo sapiens) (UniProt Q96S53)
Dual specificity testis-specific protein kinase 2 (Homo sapiens), sequence (Q96S53 whole entry, looked up): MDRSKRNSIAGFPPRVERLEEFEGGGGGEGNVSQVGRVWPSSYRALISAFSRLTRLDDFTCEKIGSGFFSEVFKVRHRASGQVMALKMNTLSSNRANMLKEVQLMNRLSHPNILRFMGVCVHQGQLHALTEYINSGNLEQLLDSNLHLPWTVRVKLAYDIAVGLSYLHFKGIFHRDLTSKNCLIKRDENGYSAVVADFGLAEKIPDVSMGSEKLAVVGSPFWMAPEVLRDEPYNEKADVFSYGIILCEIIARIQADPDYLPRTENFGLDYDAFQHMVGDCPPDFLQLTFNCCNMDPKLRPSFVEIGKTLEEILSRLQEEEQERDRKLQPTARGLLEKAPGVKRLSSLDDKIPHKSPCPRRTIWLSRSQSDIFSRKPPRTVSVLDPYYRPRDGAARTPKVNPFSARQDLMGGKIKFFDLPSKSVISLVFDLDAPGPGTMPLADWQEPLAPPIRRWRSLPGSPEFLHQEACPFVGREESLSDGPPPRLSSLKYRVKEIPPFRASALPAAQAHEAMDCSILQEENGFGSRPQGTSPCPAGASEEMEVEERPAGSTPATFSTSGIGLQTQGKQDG

[15] = biological target: 5'-AMP-activated protein kinase subunit gamma-2 (Homo sapiens) (UniProt Q9UGJ0)
[16] = biological target: Proteasome activator complex subunit 1 (Homo sapiens) (UniProt Q06323)
[17] = biological target: Serine/threonine-protein kinase 10 (Homo sapiens) (UniProt O94804)
[18] = biological target: Calcium/calmodulin-dependent protein kinase type II subunit gamma (Homo sapiens) (UniProt Q13555)
Calcium/calmodulin-dependent protein kinase type II subunit gamma (Homo sapiens), sequence (Q13555 whole entry): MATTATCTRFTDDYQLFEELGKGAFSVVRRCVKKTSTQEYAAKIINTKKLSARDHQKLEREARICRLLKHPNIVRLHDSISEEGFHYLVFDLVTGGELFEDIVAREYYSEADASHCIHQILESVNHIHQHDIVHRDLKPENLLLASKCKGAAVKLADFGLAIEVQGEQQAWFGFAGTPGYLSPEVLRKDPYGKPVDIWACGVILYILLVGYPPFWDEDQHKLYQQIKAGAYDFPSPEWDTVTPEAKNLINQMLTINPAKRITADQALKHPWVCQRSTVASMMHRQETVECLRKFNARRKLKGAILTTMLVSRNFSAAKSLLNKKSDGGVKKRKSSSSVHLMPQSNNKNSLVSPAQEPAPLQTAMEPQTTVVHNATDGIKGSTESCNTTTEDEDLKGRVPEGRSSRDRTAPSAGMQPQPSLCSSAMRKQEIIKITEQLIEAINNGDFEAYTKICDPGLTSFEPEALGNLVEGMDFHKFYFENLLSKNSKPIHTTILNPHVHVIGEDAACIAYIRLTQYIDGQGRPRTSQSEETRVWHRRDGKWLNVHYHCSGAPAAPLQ

[19] = biological target: Eukaryotic translation initiation factor 3 subunit A (Homo sapiens) (UniProt Q14152)
[20] = biological target: Calreticulin (Homo sapiens) (UniProt P27797)
[21] = biological target: PAT complex subunit CCDC47 (Homo sapiens) (UniProt Q96A33)
[22] = biological target: 14-3-3 protein eta (Homo sapiens) (UniProt Q04917)
[23] = biological target: CDGSH iron-sulfur domain-containing protein 2 (Homo sapiens) (UniProt Q8N5K1)
CDGSH iron-sulfur domain-containing protein 2 (Homo sapiens), sequence (Q8N5K1 whole entry, the tested form may be a part): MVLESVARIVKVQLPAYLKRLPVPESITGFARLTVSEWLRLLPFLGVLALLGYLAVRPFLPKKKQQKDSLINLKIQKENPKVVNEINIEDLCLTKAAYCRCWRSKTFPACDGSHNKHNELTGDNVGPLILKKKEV

[24] = biological target: Importin-8 (Homo sapiens) (UniProt O15397)
[25] = biological target: Large ribosomal subunit protein eL8 (Homo sapiens) (UniProt P62424)
[26] = biological target: Hepatocyte growth factor receptor (Homo sapiens) (UniProt P08581)
[27] = biological target: Ephrin type-B receptor 3 (Homo sapiens) (UniProt P54753)
Ephrin type-B receptor 3 (Homo sapiens), sequence (P54753 whole entry): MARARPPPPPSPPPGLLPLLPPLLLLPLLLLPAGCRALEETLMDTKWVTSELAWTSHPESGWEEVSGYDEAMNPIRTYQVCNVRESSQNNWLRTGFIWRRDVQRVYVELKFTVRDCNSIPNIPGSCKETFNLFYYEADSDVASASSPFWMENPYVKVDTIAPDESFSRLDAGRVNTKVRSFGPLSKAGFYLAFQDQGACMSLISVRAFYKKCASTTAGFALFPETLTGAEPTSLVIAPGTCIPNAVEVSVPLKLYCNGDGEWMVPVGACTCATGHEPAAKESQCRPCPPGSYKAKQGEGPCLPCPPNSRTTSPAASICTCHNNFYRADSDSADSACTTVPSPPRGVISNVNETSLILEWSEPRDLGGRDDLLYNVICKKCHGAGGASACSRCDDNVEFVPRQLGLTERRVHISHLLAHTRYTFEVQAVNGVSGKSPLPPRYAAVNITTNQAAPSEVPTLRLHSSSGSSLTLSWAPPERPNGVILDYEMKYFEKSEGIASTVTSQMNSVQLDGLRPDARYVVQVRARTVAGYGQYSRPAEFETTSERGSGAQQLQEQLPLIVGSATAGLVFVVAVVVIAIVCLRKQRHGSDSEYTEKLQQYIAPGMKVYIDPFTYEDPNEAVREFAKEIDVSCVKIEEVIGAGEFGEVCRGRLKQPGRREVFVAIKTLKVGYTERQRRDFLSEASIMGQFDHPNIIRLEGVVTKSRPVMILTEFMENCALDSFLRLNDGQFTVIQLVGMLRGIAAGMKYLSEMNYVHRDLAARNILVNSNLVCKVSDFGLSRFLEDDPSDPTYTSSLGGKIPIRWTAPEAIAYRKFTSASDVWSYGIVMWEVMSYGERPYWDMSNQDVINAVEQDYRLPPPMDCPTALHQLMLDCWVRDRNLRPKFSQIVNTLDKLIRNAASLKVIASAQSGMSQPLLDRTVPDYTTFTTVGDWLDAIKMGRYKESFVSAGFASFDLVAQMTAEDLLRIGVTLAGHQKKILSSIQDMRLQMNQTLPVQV

[28] = biological target: Protein kinase C beta type (Homo sapiens) (UniProt P05771)
[29] = biological target: Large ribosomal subunit protein eL33 (Homo sapiens) (UniProt P18077)
[30] = biological target: ADP/ATP translocase 1 (Homo sapiens) (UniProt P12235)
[31] = biological target: AP-1 complex subunit gamma-1 (Homo sapiens) (UniProt O43747)
[32] = biological target: Src substrate cortactin (Homo sapiens) (UniProt Q14247)
Src substrate cortactin (Homo sapiens), sequence (Q14247 whole entry): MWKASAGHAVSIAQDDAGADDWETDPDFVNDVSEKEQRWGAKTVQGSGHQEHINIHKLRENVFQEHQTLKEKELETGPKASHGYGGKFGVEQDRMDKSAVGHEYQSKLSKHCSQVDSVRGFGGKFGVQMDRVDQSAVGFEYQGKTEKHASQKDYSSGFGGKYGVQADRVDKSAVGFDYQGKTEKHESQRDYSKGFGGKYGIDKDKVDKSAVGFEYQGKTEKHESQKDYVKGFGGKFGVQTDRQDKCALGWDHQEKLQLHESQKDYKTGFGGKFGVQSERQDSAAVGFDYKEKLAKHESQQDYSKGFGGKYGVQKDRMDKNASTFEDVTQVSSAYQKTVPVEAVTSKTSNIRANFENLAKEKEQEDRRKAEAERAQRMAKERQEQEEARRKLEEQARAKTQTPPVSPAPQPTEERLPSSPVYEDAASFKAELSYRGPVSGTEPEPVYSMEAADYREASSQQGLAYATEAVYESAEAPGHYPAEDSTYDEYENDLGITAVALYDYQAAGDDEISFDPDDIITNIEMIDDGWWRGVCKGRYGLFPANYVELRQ

[33] = species: Homo sapiens
[34] = biological target: Programmed cell death 6-interacting protein (Homo sapiens) (UniProt Q8WUM4)
[35] = species: Homo sapiens; remark: listed apart in the source
[36] = biological target: Serine/arginine-rich splicing factor 6 (Homo sapiens) (UniProt Q13247)
[37] = biological target: Translocator protein (Homo sapiens) (UniProt P30536)
[38] = biological target: Synaptophysin-like protein 1 (Homo sapiens) (UniProt Q16563)
[39] = biological target: Ras GTPase-activating-like protein IQGAP1 (Homo sapiens) (UniProt P46940)
[40] = biological target: Serine/threonine-protein kinase STK11 (Homo sapiens) (UniProt Q15831)
[41] = biological target: Tyrosine-protein kinase CSK (Homo sapiens) (UniProt P41240)
[42] = biological target: Scaffold protein ILK (Homo sapiens) (UniProt Q13418)
[43] = biological target: Alpha-actinin-4 (Homo sapiens) (UniProt O43707)
[44] = biological target: Aminoacyl tRNA synthase complex-interacting multifunctional protein 1 (Homo sapiens) (UniProt Q12904)
[45] = biological target: Structural maintenance of chromosomes protein 3 (Homo sapiens) (UniProt Q9UQE7)
[46] = biological target: 26S proteasome non-ATPase regulatory subunit 2 (Homo sapiens) (UniProt Q13200)
[47] = biological target: Atypical kinase COQ8A, mitochondrial (Homo sapiens) (UniProt Q8NI60)
Atypical kinase COQ8A, mitochondrial (Homo sapiens), sequence (Q8NI60 163-647 limits assumed): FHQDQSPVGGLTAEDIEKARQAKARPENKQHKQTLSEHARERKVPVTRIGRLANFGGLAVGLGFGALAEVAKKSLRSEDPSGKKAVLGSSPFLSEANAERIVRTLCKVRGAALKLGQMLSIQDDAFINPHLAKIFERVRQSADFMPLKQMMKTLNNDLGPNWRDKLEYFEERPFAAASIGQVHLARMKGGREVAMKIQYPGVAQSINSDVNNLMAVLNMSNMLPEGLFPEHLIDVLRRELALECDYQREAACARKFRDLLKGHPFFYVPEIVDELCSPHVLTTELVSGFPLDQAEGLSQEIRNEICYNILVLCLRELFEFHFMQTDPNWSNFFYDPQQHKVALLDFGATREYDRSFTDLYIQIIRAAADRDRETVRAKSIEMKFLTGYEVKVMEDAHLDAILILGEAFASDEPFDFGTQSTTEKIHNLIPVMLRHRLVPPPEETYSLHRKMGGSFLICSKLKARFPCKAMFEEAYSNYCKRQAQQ
Also: assay method not described here.

Thioredoxin (Homo sapiens), sequence (P10599 whole entry): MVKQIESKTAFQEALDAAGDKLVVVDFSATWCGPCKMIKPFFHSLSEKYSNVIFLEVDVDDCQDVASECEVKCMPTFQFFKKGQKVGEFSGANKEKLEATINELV

Cc1ccc(C(=O)Nc2cccc(C(F)(F)F)c2)cc1Nc1nc(-c2cccnc2)nc2c1cnn2C
ED50 [1]: 0.00369 µM
ED50 [2]: 0.364 µM
ED50 [3]: 2.05 µM
ED50 [4]: 13.1 µM
ED50 [5]: 1.15 µM
ED50 [6]: 0.0148 µM
ED50 [7]: 1.41 µM
ED50 [8]: 0.0194 µM
ED50 [9]: 24 µM
ED50 [10]: 1.73 µM
ED50 [11]: 0.784 µM
ED50 [12]: 0.0207 µM
ED50 [13]: 0.0395 µM
ED50 [14]: 0.00136 µM
ED50 [15]: 57.4 µM
ED50 [16]: 2570 µM
ED50 [17]: 2.82 µM
ED50 [18]: 0.177 µM
ED50 [19]: 0.535 µM
ED50 [20]: 24.3 µM
ED50 [21]: 0.136 µM
ED50 [22]: 0.0217 µM
ED50 [23]: 3.1 µM
ED50 [24]: 49.5 µM
ED50 [25]: 2.57 µM
ED50 [26]: 1.75 µM
ED50 [27]: 2.64 µM
ED50 [28]: 10.9 µM
ED50 [29]: 0.0388 µM
ED50 [30]: 1.74 µM
ED50 [31]: 0.163 µM
ED50 [32]: 0.0605 µM
ED50 [33]: 70 µM
ED50 [34]: 4.91 µM
ED50 [35]: 3.03 µM
ED50 [36]: 5.98 µM
ED50 [37]: 0.103 µM
ED50 [38]: 6.43 µM
ED50 [39]: 4.7 µM
ED50 [40]: 2.39 µM
ED50 [41]: 4.52 µM
ED50 [42]: 57.4 µM
ED50 [43]: 4.01 µM
ED50 [44]: 16.5 µM
ED50 [45]: 0.0434 µM
ED50 [46]: 3.14 µM
ED50 [47]: 0.39 µM

Cc1ccc(C(=O)Nc2cccc(C(F)(F)F)c2)cc1Nc1nc(-c2cccnc2)nc2nn(C)cc12
ED50 [1]: 2770 µM
ED50 [2]: 6.14 µM
ED50 [3]: 0.0325 µM
ED50 [4]: 11.4 µM
ED50 [5]: 0.0267 µM
ED50 [6]: 0.0123 µM
ED50 [7]: 0.0523 µM
ED50 [8]: 1.91 µM
ED50 [9]: 0.0265 µM
ED50 [10]: 3.87 µM
ED50 [11]: 0.00806 µM
ED50 [12]: 0.00913 µM
ED50 [13]: 7 µM
ED50 [14]: 0.00616 µM
ED50 [15]: 0.0408 µM
ED50 [16]: 2.59 µM
ED50 [17]: 0.0351 µM
ED50 [18]: 0.0517 µM
ED50 [19]: 0.0765 µM
ED50 [20]: 24.5 µM
ED50 [21]: 40.6 µM
ED50 [22]: 0.103 µM
ED50 [23]: 0.0591 µM
ED50 [24]: 25.8 µM
ED50 [25]: 9.78 µM
ED50 [26]: 523 µM
ED50 [27]: 7.41 µM
ED50 [28]: 0.875 µM
ED50 [29]: 0.0167 µM
ED50 [30]: 107 µM
ED50 [31]: 1.37 µM
ED50 [32]: 19.6 µM
ED50 [33]: 17.7 µM
ED50 [34]: 4.24 µM
ED50 [35]: 0.00933 µM
ED50 [36]: 32.5 µM
ED50 [37]: 0.0238 µM
ED50 [38]: 0.0536 µM
ED50 [39]: 0.0354 µM
ED50 [40]: 0.018 µM
ED50 [41]: 1.86 µM
ED50 [42]: 67.3 µM
ED50 [43]: 0.12 µM
ED50 [44]: 0.0574 µM
ED50 [45]: 0.431 µM
ED50 [46]: 14.9 µM
ED50 [47]: 8.58 µM
